Measured values: ChEMBL document CHEMBL3639308, “Substituted naphthyridines and their use as medicaments” (2015)

Biological target: Tyrosine-protein kinase SYK (Homo sapiens, UniProt P43405)

COc1cc(-c2cc3ncccc3c(O[C@H](C)[C@H]3CNC(=O)C3)n2)ccc1OC(F)(F)F
IC50: 1.9 nM
